Measured values from ChEMBL document CHEMBL1201862, “PubChem BioAssay data set” (2004).
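In this assay, cells in 96-well plates receive the compound at five concentrations for 48 hours. Endpoints are linearly interpolated between the surrounding concentrations. Here, GI50 denotes the concentration required for 50% inhibition of growth.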 Calls of active or inactive are those of the source. No stated cut-off is given here; in the data, active = GI50 up to about 1.1 µM and inactive = higher.

Columns and labels:
Assay in all cases: growth of human tumour cells (NCI), 48 h
A549 = system: A549
ACHN = system: ACHN
CAKI-1 = system: CAKI-1
COLO 205 = system: COLO 205
DU-145 = system: DU-145
HCC 2998 = system: HCC 2998
HL-60 = system: HL-60
HT-29 = system: HT-29
NCI-H23 = system: NCI-H23
NCI-H460 = system: NCI-H460
NCI/ADR-RES = system: NCI/ADR-RES
OVCAR-5 = system: OVCAR-5
SF-295 = system: SF-295
SK-MEL-2 = system: SK-MEL-2
SK-OV-3 = system: SK-OV-3
SNB-19 = system: SNB-19
SNB-75 = system: SNB-75
TK-10 = system: TK-10
NCI-H226 = system: NCI-H226
NCI-H522 = system: NCI-H522

SMILES	GI50 (A549)	GI50 (ACHN)	GI50 (CAKI-1)	GI50 (COLO 205)	GI50 (DU-145)	GI50 (HCC 2998)	GI50 (HL-60)	GI50 (HT-29)	GI50 (NCI-H23)	GI50 (NCI-H460)	GI50 (NCI/ADR-RES)	GI50 (OVCAR-5)	GI50 (SF-295)	GI50 (SK-MEL-2)	GI50 (SK-OV-3)	GI50 (SNB-19)	GI50 (SNB-75)	GI50 (TK-10)	GI50 (NCI-H226)	GI50 (NCI-H522)
CC(=O)NC1C(OCc2ccccc2)OC(CO)C(O)C1OCC(=O)NC(C(=O)NC(CCC(=O)NCCCCCC(=O)Nc1ccc2c(c1)CN1C(=O)c3ccccc3C1=N2)C(N)=O)C(C)C (stereo unspecified)	41.4 µM (inactive)	46.3 µM (inactive)	28.8 µM (inactive)	47 µM (inactive)	63.8 µM (inactive)	35.6 µM (inactive)	> 100 µM (inactive)	42.8 µM (inactive)	35.3 µM (inactive)	20.8 µM (inactive)	45.8 µM (inactive)	> 100 µM (inactive)	24.7 µM (inactive)	27.1 µM (inactive)	18.8 µM (inactive)	20.9 µM (inactive)	22 µM (inactive)	18.3 µM (inactive)	–	–
CCN1c2cc(Br)cc3[nH]c(=O)n(c23)CCC1C (stereo unspecified)	15.1 µM (inactive)	19.5 µM (inactive)	11.6 µM (inactive)	14.9 µM (inactive)	18.3 µM (inactive)	15.6 µM (inactive)	11.9 µM (inactive)	15.6 µM (inactive)	21.7 µM (inactive)	17 µM (inactive)	5.7 µM (inactive)	20.2 µM (inactive)	16 µM (inactive)	15.6 µM (inactive)	19.4 µM (inactive)	23.2 µM (inactive)	12.3 µM (inactive)	15.9 µM (inactive)	15.8 µM (inactive)	–
Cc1cccc(NC(=O)CCl)c1	> 10 µM (inactive)	> 10 µM (inactive)	> 10 µM (inactive)	> 10 µM (inactive)	> 10 µM (inactive)	> 10 µM (inactive)	3.56 µM (inactive)	7.87 µM (inactive)	4.26 µM (inactive)	> 10 µM (inactive)	> 10 µM (inactive)	> 10 µM (inactive)	> 10 µM (inactive)	> 10 µM (inactive)	> 10 µM (inactive)	> 10 µM (inactive)	–	> 10 µM (inactive)	7.36 µM (inactive)	1.95 µM (inactive)
CCc1n[nH]c(=O)n1N1C(=O)C2CCCCC2C1=O (stereo unspecified)	> 100 µM (inactive)	> 100 µM (inactive)	> 100 µM (inactive)	> 100 µM (inactive)	> 100 µM (inactive)	> 100 µM (inactive)	> 100 µM (inactive)	> 100 µM (inactive)	> 100 µM (inactive)	–	> 100 µM (inactive)	> 100 µM (inactive)	> 100 µM (inactive)	> 100 µM (inactive)	> 100 µM (inactive)	–	> 100 µM (inactive)	> 100 µM (inactive)	> 100 µM (inactive)	> 100 µM (inactive)
CC(=O)/N=C1\NC(=O)/C(=C/c2ccc(/C=C3/C(=O)N/C(=N\C(C)=O)N3C)cc2)N1C	> 100 µM (inactive)	> 100 µM (inactive)	> 100 µM (inactive)	> 100 µM (inactive)	> 100 µM (inactive)	> 100 µM (inactive)	47.3 µM (inactive)	> 100 µM (inactive)	> 100 µM (inactive)	> 100 µM (inactive)	> 100 µM (inactive)	> 100 µM (inactive)	> 100 µM (inactive)	> 100 µM (inactive)	> 100 µM (inactive)	> 100 µM (inactive)	> 100 µM (inactive)	> 100 µM (inactive)	> 100 µM (inactive)	–
CC(=O)OCCC1c2ccccc2-n2nc(-c3ccccc3)c(O)c21 (stereo unspecified)	17.7 µM (inactive)	19.1 µM (inactive)	18.7 µM (inactive)	20.1 µM (inactive)	17.7 µM (inactive)	24.8 µM (inactive)	11.1 µM (inactive)	21.2 µM (inactive)	16.6 µM (inactive)	14.5 µM (inactive)	14.8 µM (inactive)	19.3 µM (inactive)	20 µM (inactive)	27.1 µM (inactive)	–	14.6 µM (inactive)	20.8 µM (inactive)	22.1 µM (inactive)	26 µM (inactive)	16.6 µM (inactive)
CC(=O)OC1(C)CC(C)C(=O)C(C(O)CC2CC(=O)NC(=O)C2)C1 (stereo unspecified)	0.00729 µM (active)	0.00743 µM (active)	0.0875 µM (active)	0.0108 µM (active)	0.0118 µM (active)	0.01 µM (active)	0.00955 µM (active)	0.00798 µM (active)	0.00807 µM (active)	0.0121 µM (active)	0.0386 µM (active)	0.0206 µM (active)	0.0127 µM (active)	0.00752 µM (active)	–	0.0141 µM (active)	0.504 µM (active)	0.0859 µM (active)	0.0448 µM (active)	0.00357 µM (active)
